# Data: patent US12729377B2, “RNAi agents and compositions for inhibiting expression of angiopoietin-like 3 (ANGPTL3), and methods of use” (Arrowhead Pharmaceuticals, Inc., priority 2017, dated 2026)
# In the oligonucleotide strings, read from the 5' end, every base follows the letter of its sugar. An asterisk marks phosphorothioate; unmarked linkages are phosphodiester. Other units and linkages are bracketed, terminal groups are in braces. A string of capitals states the bases alone. {NAG37} = tridentate N-acetyl-galactosamine targeting ligand, structure (NAG37)s; [invAb] = inverted abasic unit; m = 2'-O-methyl; f = 2'-fluoro
# How the values were obtained:
# Format in all cases: in vivo, cynomolgus macaque (Macaca fascicularis)
# ANGPTL3 protein = experiment: Example 8: serum ANGPTL3 protein by ELISA in cynomolgus monkeys; conditions: for Avg ANGPTL3 protein normalized to pre-treatment: 3.0 mg/kg single SC injection day 1, cynos, n=2
# Protocol: (§1) Additional ANGPTL3 RNAi agents were evaluated in cynomolgus monkeys. On day 1, cynomolgus macaque (Macaca fascicularis) primates (also referred to herein as “cynos”) were administered a single subcutaneous injection of 0.3 mL/kg (approximately 1-2 mL volume, depending on animal mass) containing 3.0 mg/kg of one of ANGPTL3 RNAi agent AD05577, AD05307, AD05488, AD05654, or AD05659, each formulated in saline.
# (§2) Two (2) cynos in each group were tested (n=2). Blood samples were drawn and serum samples were analyzed on days −8 (pre-dose), 1 (pre-dose), 8, 15, 22, 29, and 36. Cynos were fasted overnight prior to each collection. ANGPTL3 protein levels in serum were measured by ELISA assay (R&D Systems), according to the manufacturer's recommendations. Triglycerides, total cholesterol, high-density lipoprotein (HDL), and low-density lipoprotein (LDL) in serum were measured on a Cobas® Integra 400 (Roche Diagnostics), according to the manufacturer's recommendations.
# (§3) The ANGPTL3 protein levels, triglyceride levels, total cholesterol levels, HDL levels, and LDL levels for each animal were normalized. For normalization, the level of ANGPTL3 protein, triglyceride, HDL, and total cholesterol, respectively, for each animal at a time point, was divided by the average pre-treatment level of expression in that animal (in this case at days −8, and 1 (pre-dose)) to determine the ratio of expression “normalized to pre-treatment.”
# ANGPTL3 gene [1] = experiment: Example 8: serum triglycerides in cynomolgus monkeys; conditions: 3.0 mg/kg single SC injection day 1, cynos, n=2
# Protocol: as §1, §2, §3
# ANGPTL3 gene [2] = experiment: Example 8: serum total cholesterol in cynomolgus monkeys; conditions: 3.0 mg/kg single SC injection day 1, cynos, n=2
# Protocol: as §1, §2, §3
# ANGPTL3 gene [3] = experiment: Example 8: serum HDL in cynomolgus monkeys; conditions: 3.0 mg/kg single SC injection day 1, cynos, n=2
# Protocol: as §1, §2, §3
# ANGPTL3 gene [4] = experiment: Example 8: serum LDL in cynomolgus monkeys; conditions: 3.0 mg/kg single SC injection day 1, cynos, n=2
# Protocol: as §1, §2, §3
substance,measurement,setting,value
"AD05577: RNAi agent duplex: antisense AM07350-AS, sense AM07002-SS (antisense mU*fG*mU*mUmGmAmAmUmUmAmAfUmGfUmCfCmAfUmGfG*mA; sense {NAG37}*[invAb]*mUmCmCmAmUmGmGmAfCfAfUmUmAmAmUmUmCmAmAmCmA*[invAb])",Avg ANGPTL3 protein normalized to pre-treatment,ANGPTL3 protein; Day 8,0.503
same,Avg ANGPTL3 protein normalized to pre-treatment,ANGPTL3 protein; Day 15,0.544
same,Avg ANGPTL3 protein normalized to pre-treatment,ANGPTL3 protein; Day 22,0.754
same,Avg ANGPTL3 protein normalized to pre-treatment,ANGPTL3 protein; Day 29,0.586
same,Avg ANGPTL3 protein normalized to pre-treatment,ANGPTL3 protein; Day 36,0.479
same,reduction in ANGPTL3 protein compared to pre-treatment,"ANGPTL3 protein; all measured time points, single 3.0 mg/kg subcutaneous, cynomolgus monkeys",reduction
same,Avg TG normalized to pre-treatment,ANGPTL3 gene [1]; Day 8,1.159
same,Avg TG normalized to pre-treatment,ANGPTL3 gene [1]; Day 15,0.977
same,Avg TG normalized to pre-treatment,ANGPTL3 gene [1]; Day 22,0.855
same,Avg TG normalized to pre-treatment,ANGPTL3 gene [1]; Day 29,0.886
same,Avg TG normalized to pre-treatment,ANGPTL3 gene [1]; Day 36,0.748
same,Avg Total Chol normalized to pre-treatment,ANGPTL3 gene [2]; Day 8,0.885
same,Avg Total Chol normalized to pre-treatment,ANGPTL3 gene [2]; Day 15,0.931
same,Avg Total Chol normalized to pre-treatment,ANGPTL3 gene [2]; Day 22,0.844
same,Avg Total Chol normalized to pre-treatment,ANGPTL3 gene [2]; Day 29,0.839
same,Avg Total Chol normalized to pre-treatment,ANGPTL3 gene [2]; Day 36,0.936
same,Average HDL Normalized to Pre-Treatment,ANGPTL3 gene [3]; Day 8,0.855
same,Average HDL Normalized to Pre-Treatment,ANGPTL3 gene [3]; Day 15,0.788
same,Average HDL Normalized to Pre-Treatment,ANGPTL3 gene [3]; Day 22,0.818
same,Average HDL Normalized to Pre-Treatment,ANGPTL3 gene [3]; Day 29,0.857
same,Average HDL Normalized to Pre-Treatment,ANGPTL3 gene [3]; Day 36,0.852
same,Average LDL Normalized to Pre-Treatment,ANGPTL3 gene [4]; Day 8,0.951
same,Average LDL Normalized to Pre-Treatment,ANGPTL3 gene [4]; Day 15,1.091
same,Average LDL Normalized to Pre-Treatment,ANGPTL3 gene [4]; Day 22,0.860
same,Average LDL Normalized to Pre-Treatment,ANGPTL3 gene [4]; Day 29,0.991
same,Average LDL Normalized to Pre-Treatment,ANGPTL3 gene [4]; Day 36,0.925
